For test [1], the system named is Spodoptera litura. The test is described as follows: Antifeedant activity against larvae of Spodoptera litura in castor leaves relative to control. The test is classed as functional.
Test [2] deals with Spodoptera litura. The test is described as follows: Feeding index against larvae of Spodoptera litura in castor leaves =.

`COC(=O)C[C@H]1[C@]2(C)C3=C(C)[C@H](c4ccoc4)C[C@H]3O[C@@H]2[C@@H]2OC[C@]3(C)[C@H](O)C[C@H](OC(=O)C=C(C)C)[C@@]1(C)[C@@H]23` showed an AFI in test [1] of 52.1%.
`COC(=O)C[C@H]1[C@]2(C)C3=C(C)[C@H](c4ccoc4)C[C@H]3O[C@@H]2C(=O)[C@@H]2[C@]1(C)C(=O)C=C[C@@]2(C)C(=O)OC` [6-OXONIMBIN] registered a PFI in test [2] of 42.3%.
In test [2], `C/C=C(\C)C(=O)O[C@H]1CC(=O)[C@@]2(C)CO[C@H]3[C@H]4O[C@@H]5C[C@@H](c6ccoc6)C(C)=C5[C@@]4(C)[C@H](CC(=O)OC)[C@]1(C)[C@@H]32` [3-OXOSALANNIN] registered a PFI of 42.9%.
In test [2], `C/C=C(\C)C(=O)O[C@H]1C[C@@H](OC(C)=O)[C@@]2(C(=O)OC)CO[C@H]3[C@@H](O)[C@@](C)([C@]45O[C@@]4(C)[C@H]4C[C@@H]5O[C@@H]5OC=C[C@@]54O)[C@H]4[C@]1(CO[C@]4(O)C(=O)OC)[C@@H]32` [AZADIRACTIN] showed a PFI of 27.5%.
Still for that read-out and setting: for `CC(=O)O[C@@H]1[C@H](O)[C@H]2C(C)(C)C(=O)C=C[C@]2(C)[C@H]2CC[C@@]3(C)[C@H](c4ccoc4)C[C@H]4O[C@]43[C@]12C` [EPOXY NIMONOL] the value was 32%; for `C/C=C(\C)C(=O)O[C@H]1C[C@@H](OC(C)=O)[C@@]2(C)CO[C@H]3[C@H]4O[C@@H]5C[C@@H](C6=CC(=O)OC6O)C(C)=C5[C@@]4(C)[C@H](CC(=O)OC)[C@]1(C)[C@@H]32` (some centres not stated) [SALANNIN PP], 25.1%.
`C/C=C(\C)C(=O)O[C@H]1C[C@@H](O)[C@@]2(C)CO[C@H]3[C@H]4O[C@@H]5C[C@@H](C6=CCOC6=O)C(C)=C5[C@@]4(C)[C@H](CC(=O)OC)[C@]1(C)[C@@H]32` [DESACETYLSALANNOBUTYROLACTONE] came in with a PFI in test [2] of 40.35%.

The record behind these values is ChEMBL document CHEMBL3045786, “Insect antifeedant activity of tetranortriterpenoids from the Rutales. A perusal of structural relations” (2002).
